{
  "source": "patent US20250171432A1",
  "about": "“COMPOUNDS AND METHODS OF USE” (Tango Therapeutics, Inc., priority 2022, published 2025)",
  "assay_type_in_all_cases": "cell-based",
  "key": {"[1]": {"test_system": "SDMA (PRMT5 activity) in HAP1 MTAP-intact cell line", "assay": "SDMA in-cell western assay, HAP1 MTAP-intact", "settings": "Homo sapiens, SDMA in-cell western, HAP1 MTAP-intact cells, 24 hours compound incubation"}, "[2]": {"test_system": "SDMA (PRMT5 activity) in HAP1 MTAP-deleted cell line", "assay": "SDMA in-cell western assay, HAP1 MTAP-deleted", "settings": "for IC50 / IC90: Homo sapiens, SDMA in-cell western, HAP1 MTAP-deleted cells, 24 hours compound incubation; for Hap1 MTAP intact/deleted ratio: ratio of SDMA IC50 in HAP1 MTAP-intact to HAP1 MTAP-deleted cell line"}, "[3]": {"test_system": "HAP1 MTAP-deleted cell line", "assay": "Viability assay (CellTiter-Glo), HAP1 MTAP-deleted", "settings": "Homo sapiens, 168 h, HAP1 MTAP-deleted cells, 7 days", "summary_of_the_method": "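HAP1 MTAP-deleted and MTAP-intact cells seeded, then dosed next day (n=3, 0.2% DMSO) and grown 7 days. Viability by CellTiter-Glo luminescence, expressed as % of DMSO control per cell line.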"}},
  "data": [
    {"smiles": "CCc1cc(NC(=O)C(=O)N2C[C@@H](C)CC[C@@H]2c2ccc3sc([C@H]4C[C@@H](N(C)C)C4)nc3c2)cnc1N", "note": "[Compound 40, N-(6-amino-5-ethyl-3-pyridyl)-2-oxo-2-[(2R,5S)-2-[2-[3-(dimethylamino)cyclobutyl]-1,3-benzothiazol-5-yl]-5-methyl-1-piperidyl]acetamide]", "values": [
      {"measurement": "IC50", "setting": "[1]; HAP1, 24 h", "result": "> 0.05", "unit": "µM"},
      {"measurement": "IC50", "setting": "[2]", "result": "< 0.005", "unit": "µM"},
      {"measurement": "IC90", "setting": "[2]", "result": "< 0.075", "unit": "µM"},
      {"measurement": "Hap1 MTAP intact/deleted ratio", "setting": "[2]", "result": "A (“A” indicates an IC50 ratio greater than or equal to 30 fold)"},
      {"measurement": "IC50", "setting": "[3]", "result": "< 0.1", "unit": "µM"}
    ]},
    {"smiles": "CCc1cc(NC(=O)C(=O)N2C[C@@H](C)CC[C@@H]2c2ccc3sc(CC4CCN(C)CC4)nc3c2)cnc1N", "note": "[Compound 41, N-(6-amino-5-ethylpyridin-3-yl)-2-((2R,5S)-5-methyl-2-(2-((1-methylpiperidin-4-yl)methyl)benzo[d]thiazol-5-yl)piperidin-1-yl)-2-oxoacetamide]", "values": [
      {"measurement": "IC50", "setting": "[1]; HAP1, 24 h", "result": "0.005 to 0.05", "unit": "µM"},
      {"measurement": "IC50", "setting": "[2]", "result": "< 0.005", "unit": "µM"},
      {"measurement": "IC90", "setting": "[2]", "result": "< 0.075", "unit": "µM"},
      {"measurement": "Hap1 MTAP intact/deleted ratio", "setting": "[2]", "result": "B (“B” indicates an IC50 ratio greater than or equal to 15 fold but lower than 30 fold)"},
      {"measurement": "IC50", "setting": "[3]", "result": "< 0.1", "unit": "µM"}
    ]},
    {"smiles": "CCc1cc(NC(=O)C(=O)N2C[C@@H](C)CC[C@@H]2c2ccc3cn([C@H]4CCN(C)C[C@H]4C)nc3c2)cnc1N", "note": "[Compound 42]", "values": [
      {"measurement": "IC50", "setting": "[1]; HAP1, 24 h", "result": "> 0.05", "unit": "µM"},
      {"measurement": "IC50", "setting": "[2]", "result": "< 0.005", "unit": "µM"},
      {"measurement": "IC90", "setting": "[2]", "result": "< 0.075", "unit": "µM"},
      {"measurement": "Hap1 MTAP intact/deleted ratio", "setting": "[2]", "result": "B (“B” indicates an IC50 ratio greater than or equal to 15 fold but lower than 30 fold)"},
      {"measurement": "IC50", "setting": "[3]", "result": "< 0.1", "unit": "µM"}
    ]},
    {"smiles": "CCc1cc(NC(=O)C(=O)N2C[C@@H](C)CC[C@@H]2c2ccc3nn([C@H]4CCN(C)C(C)(C)C4)cc3c2)cnc1N", "note": "[Compound 44]", "values": [
      {"measurement": "IC50", "setting": "[1]; HAP1, 24 h", "result": "0.005 to 0.05", "unit": "µM"},
      {"measurement": "IC50", "setting": "[2]", "result": "< 0.005", "unit": "µM"},
      {"measurement": "IC90", "setting": "[2]", "result": "< 0.075", "unit": "µM"},
      {"measurement": "Hap1 MTAP intact/deleted ratio", "setting": "[2]", "result": "B (“B” indicates an IC50 ratio greater than or equal to 15 fold but lower than 30 fold)"},
      {"measurement": "IC50", "setting": "[3]", "result": "< 0.1", "unit": "µM"}
    ]},
    {"smiles": "COc1ncc(NC(=O)C(=O)N2C[C@@H](C)CC[C@@H]2c2ccc3sc(C4=CCN(C)CCC4)nc3c2)cc1C(N)=O", "note": "[Compound 46, 2-methoxy-5-(2-((2R,5S)-5-methyl-2-(2-(1-methyl-2,5,6,7-tetrahydro-1H-azepin-4-yl)benzo[d]thiazol-5-yl)piperidin-1-yl)-2-oxoacetamido)nicotinamide]", "values": [
      {"measurement": "IC50", "setting": "[1]; HAP1, 24 h", "result": "0.005 to 0.05", "unit": "µM"},
      {"measurement": "IC50", "setting": "[2]", "result": "< 0.005", "unit": "µM"},
      {"measurement": "IC90", "setting": "[2]", "result": "< 0.075", "unit": "µM"},
      {"measurement": "Hap1 MTAP intact/deleted ratio", "setting": "[2]", "result": "B (“B” indicates an IC50 ratio greater than or equal to 15 fold but lower than 30 fold)"},
      {"measurement": "IC50", "setting": "[3]", "result": "< 0.1", "unit": "µM"}
    ]},
    {"smiles": "CCc1cc(NC(=O)C(=O)N2C[C@@H](C)CC[C@@H]2c2ccc3sc([C@@H](C)CN4CCCC4)nc3c2)cnc1N", "note": "[Compound 47]", "values": [
      {"measurement": "IC50", "setting": "[1]; HAP1, 24 h", "result": "> 0.05", "unit": "µM"},
      {"measurement": "IC50", "setting": "[2]", "result": "< 0.005", "unit": "µM"},
      {"measurement": "IC90", "setting": "[2]", "result": "< 0.075", "unit": "µM"},
      {"measurement": "Hap1 MTAP intact/deleted ratio", "setting": "[2]", "result": "A (“A” indicates an IC50 ratio greater than or equal to 30 fold)"},
      {"measurement": "IC50", "setting": "[3]", "result": "< 0.1", "unit": "µM"}
    ]},
    {"smiles": "COc1ncc(NC(=O)C(=O)N2C[C@@H](C)CC[C@@H]2c2cccc(OC[C@@H](C)N(C)C)c2)cc1C(N)=O", "note": "[Compound 49, 5-(2-((2R,5S)-2-(3-((R)-2-(dimethylamino)propoxy)phenyl)-5-methylpiperidin-1-yl)-2-oxoacetamido)-2-methoxynicotinamide]", "values": [
      {"measurement": "IC50", "setting": "[1]; HAP1, 24 h", "result": "> 0.05", "unit": "µM"},
      {"measurement": "IC50", "setting": "[2]", "result": "< 0.005", "unit": "µM"},
      {"measurement": "IC90", "setting": "[2]", "result": "< 0.075", "unit": "µM"},
      {"measurement": "Hap1 MTAP intact/deleted ratio", "setting": "[2]", "result": "A (“A” indicates an IC50 ratio greater than or equal to 30 fold)"},
      {"measurement": "IC50", "setting": "[3]", "result": "0.1 to 1", "unit": "µM"}
    ]},
    {"smiles": "C[C@H]1CC[C@H](c2ccc3scnc3c2)N(C(=O)C(=O)Nc2cnc(N)c(I)c2)C1", "note": "[Compound 51, N-(6-amino-5-iodopyridin-3-yl)-2-((2R,5S)-2-(benzo[d]thiazol-5-yl)-5-methylpiperidin-1-yl)-2-oxoacetamide]", "values": [
      {"measurement": "IC50", "setting": "[1]", "result": "> 0.05", "unit": "µM"},
      {"measurement": "IC50", "setting": "[2]", "result": "< 0.005", "unit": "µM"},
      {"measurement": "IC90", "setting": "[2]", "result": "0.075 to 0.125", "unit": "µM"},
      {"measurement": "Hap1 MTAP intact/deleted ratio", "setting": "[2]", "result": "A (“A” indicates an IC50 ratio greater than or equal to 30 fold)"},
      {"measurement": "IC50", "setting": "[3]", "result": "0.1 to 1", "unit": "µM"}
    ]}
  ]
}
